From patent US20220088131A1, “COMPOSITIONS AND METHODS RELATING TO C5L2” (King's College London, priority 2013, published 2022)

Columns and labels:
[1] = test system: human CD4+ T cells; experiment: Effect of carboxypeptidase M inhibition on cytokine secretion in CD4+ T cells (CBA); format: cell-based; conditions: resting and activated CD4+ T cells, 36 hours
Description: FIG. 12A. Effect of carboxypeptidase M (CPM) inhibition on cytokine secretion in resting and activated CD4+ T cells. CD4+ T cells (2.5×10^5) were activated as depicted for 36 hours and supernatants assayed for Th1/2/17 cytokines using CBA. Cells were treated with either C5aR/C5L2 double receptor antagonist (dRA; 7 μM), C5aR antagonist (PMX53; 10 μM), with or without a carboxypetidase M inhibitor (CPMi) or activated in media without any addition as a first control (non-treated, NT) or with a control peptide that lacks activity towards C5a and C5L2 as a second control (Control). The effect of antagonist treatment was assessed in non-activated T cells (white bars), as well as T cells activated with 0.25 μg plate-bound anti-CD3 (light grey bars), anti-CD3/28 (dark grey bars) or anti-CD3/46 (black bars). Data represent n=4 with standard error of the mean indicated. Bar graphs showing effect of CPMi on secretion of IL-17, IFN-γ, and TNFα by resting and activated CD4+ T cells. FIG. 12B. […]
CD4^+ T cells and CD14^+ monocytes were cultured in medium (RPMI-1640 medium (Sigma-Alich, Suffolk, UK), supplemented with 1% GlutaMAX, 1% penicillin/streptomycin (both Life Technologies, Paisley, UK) and 10% FBS (HyClone Laboratories, Logan, Utah). In the case of T cells media was supplemented with 25 U/ml IL-2 (Sigma-Aldrich; or with concentrations indicated in figure legends). CD4^+ T cells (2.5×10^5) were cultured alone or together with plate-bound anti-CD3 (OKT3, Biolegend, San Diego, Calif.), anti-CD3 and anti-CD28 (CD28.2, BD Pharmingen, San Jose, Calif.) or anti-CD3 and anti-CD46 (TRA-2-10, provided by John Atkinson, Washington University, St Louis, Mo.) all immobilised onto 48-well plates at concentrations of 2 μg/ml PBS overnight at 4° C. […] Cells were cultured at 37° C. and 5% CO2 and cytokine secetion assessed at 12, 24 or 36 h post activation.
The Th1/Th2/Th17 Cytometric Bead Array (BD Bioscience) was used to quantify cytokine production by CD4^+ T cells and monocytes following 12 or 36 h culture under distinct activation conditions. […]

[2] = test system: human CD4+ T cells; experiment: Rescue of CPM inhibitor-mediated increase in IFN-γ production by CD4+ T cells; format: cell-based; conditions: 24 h post activation, FIG. 13
Description: FIG. 13. Serum-purified C5adesArg can partially rescue carboxypeptidase M inhibitor (CPM)-mediated increase in IFN-γ production by CD4+ T cells. Purified human CD4+ T cells were activated with depicted immobilized antibodies in media, or in media with the addition of a CPM inhibitor with or without either serum-purified C5a or C5adesArg. IFN-γ production by cells was assessed 24 h post activation using the CBA Cytokine Bead Array ([…]). Data (±SD) are from three experiments (n=3). *, p<0.05; (student's paired t-test).
The ability of serum-purified C5adesArg to rescue carboxypeptidase M inhibitor (CPM)-mediated increase in IFN-γ production by CD4+ T cells was determined. Purified human CD4^+ T cells were activated in media, or in media with the addition of a CPM inhibitor with or without either serum-purified C5a or C5adesArg. IFN-γ production by cells was assessed 24 h post activation using the CBA Cytokine Bead Array. […] However, the increase in IFN-γ production was markedly lower when C5adesArg was present than when C5a was present and also markedly lower than in the absence of both C5a and C5adesArg. Addition of purified C5adesArg but not C5a reduced CPM inhibitor-induced increase in IFN-γ by about 25%.

[3] = test system: CD14+ monocytes; experiment: Pro-inflammatory cytokine release by monocytes (CBA); format: cell-based, human; conditions: resting and Flagellin-stimulated monocytes; 36 hours; dRA 7 μM, PMX53 10 μM; FIG. 9
Description: FIG. 9. C5L2 blockade induces pro-inflammatory cytokine release by human monocytes. CD14+ monocytes (2.5×10^5) were cultured for 36 hours and supernatants assayed for cytokines using CBA. Monocytes were treated with either C5aR/C5L2 double receptor antagonist (dRA; 7 μM), C5aR antagonist (PMX53; 10 μM) or control (non-treated). The effect of antagonist treatment was assessed on non-activated monocytes (white bars) as well as monocytes activated with 1 μg/ml of either Flagellin (light grey bars) or 100 ng/ml LPS (dark grey bars). Data represent n=4 experiments with SEM indicated. Statistical testing was not conducted as insufficient experimental repeats were performed to assume normal distribution. Asterisk denotes that the median value was 10,400 pg/ml.
Human blood was obtained from healthy volunteers following ethical guidelines set by Kings College London (KCL) ethics committee (REC: 09/H0804/72). PBMCs were isolated by density centrifugation (Ficoll-Paque PLUS; GE healthcare, Uppsala, Sweden). […]
The Th1/Th2/Th17 Cytometric Bead Array (BD Bioscience) was used to quantify cytokine production by CD4^+ T cells and monocytes following 12 or 36 h culture under distinct activation conditions. […] IL-1β amounts secreted into the cell media were measured by ELISA, according to the manufacturer's protocol (R&D Systems, Abingdon, UK).

[4] = test system: human CD4+ T cells; experiment: Cytokine secretion by CD4+ T cells with C5aR or C5aR/C5L2 blockade (Cytometric Bead Array); format: cell-based
Source text: Human blood was obtained from healthy volunteers following ethical guidelines set by Kings College London (KCL) ethics committee (REC: 09/H0804/72). PBMCs were isolated by density centrifugation (Ficoll-Paque PLUS; GE healthcare, Uppsala, Sweden). Cell subsets were isolated by magnetic separation following manufacturer's instructions (Miltenyi Biotec, Auburn, Calif.). Monocytes were positively selected using anti-CD14 microbeads (average purity 97%) and CD4^+ T cells were isolated from the CD14-negative fraction using anti-CD4 microbeads (average purity 98%). Alternatively, CD4^+ T cells were isolated from purified PBMCs by cell sorting after staining with antibodies to CD14 and CD4 and CD3.
CD4^+ T cells and CD14^+ monocytes were cultured in medium (RPMI-1640 medium (Sigma-Alich, Suffolk, UK), supplemented with 1% GlutaMAX, 1% penicillin/streptomycin (both Life Technologies, Paisley, UK) and 10% FBS (HyClone Laboratories, Logan, Utah). In the case of T cells media was supplemented with 25 U/ml IL-2 (Sigma-Aldrich; or with concentrations indicated in figure legends). CD4^+ T cells (2.5×10^5) were cultured alone or together with plate-bound anti-CD3 (OKT3, Biolegend, San Diego, Calif.), anti-CD3 and anti-CD28 (CD28.2, BD Pharmingen, San Jose, Calif.) or anti-CD3 and anti-CD46 (TRA-2-10, provided by John Atkinson, Washington University, St Louis, Mo.) all immobilised onto 48-well plates at concentrations of 2 μg/ml PBS overnight at 4° C. Monocytes (2.5×10^5) were cultured either alone or in the presence of LPS or Flagellin (1 μg/ml). […] Cells were cultured at 37° C. and 5% CO2 and cytokine secetion assessed at 12, 24 or 36 h post activation.
The Th1/Th2/Th17 Cytometric Bead Array (BD Bioscience) was used to quantify cytokine production by CD4^+ T cells and monocytes following 12 or 36 h culture under distinct activation conditions. Samples were processed following manufacturer's instructions and acquired using BD FACScan. IL-1β amounts secreted into the cell media were measured by ELISA, according to the manufacturer's protocol (R&D Systems, Abingdon, UK).

[5] = activated CD4+ T cells, dRA 7 μM, PMX53 10 μM, FIG. 6

Q: Which “effect on IFN-γ secretion” value ([1]; FIG. 12A) does the source give for “CPMi: carboxypetidase (CP) A and B inhibitor, which also effectively inhibits CPM (Sigma CO279; 25 nM) (QQHADPICNKPCKTHDDCSGAWFCQACWNSARTCGPYVG)” here?
A: may also be present

Q: What about the “secretion of IL-17” value ([1]; control cells, untreated cells and with C5aR antagonist, FIG. 12A) of the same molecule?
A: increased secretion

Q: And the “secretion of IL-6” value ([1]; control cells, untreated cells and with C5aR antagonist, FIG. 12B)?
A: increased secretion

Q: And the IFN-γ production ([2]; all activation conditions)?
A: increased IFN-γ production

Q: For PMX53 [reference compound], which “secretion of IL-6” value [3] is on record?
A: no effect

Q: What about the “secretion of IFN-γ” value [4, 5] of the same molecule?
A: no effect

Q: And the “secretion of IL-17” value [4, 5]?
A: no effect

Q: What about the “secretion of IL-6” value ([4]; resting and activated CD4+ T cells, FIG. 7A) of the same molecule?
A: no effect

B1: C5adesArg: serum-purified C5a lacking the C-terminal Arg; naturally occurring agonist of C5L2 (protein)
chain: TLQKKIEEIAAKYKHSVVKKCCYDGACVNNDETCEQRAARISLGPRCIKAFTECCVVASQLRANISHKDMQLG
Q: B1 was tested. Which “reduction of CPM inhibitor-induced increase in IFN-γ” value ([2]; serum-purified protein added with CPM inhibitor) did it give?
A: about 25%
